SMILES strings stand for the structures.

Here are results for one compound from US7569337B2, “Coumarines useful as biomarkers” (Novartis AG, priority 2002, dated 2009).

As a reminder, the melting point is the temperature of the solid-liquid transition.

Consider `O=c1oc2cc3c(cc2cc1-c1cn2cc(Cl)ccc2n1)CCCN3CCF` [Example 2, 3-(6-Chloro-imidazo[1,2-a]pyridin-2-yl)-8-(2-fluoro-ethyl)-5,6,7,8-tetrahydro-1-oxa-8-aza-anthracen-2-one], for which the melting point was 290 °C (dec.).
